Legend:
Experiment in all cases: relative viability (nuclei count vs DMSO), 5 days (fraction); higher = more cells survive
IU1-47 + Navitoclax = compound: CC1=CC(=C(N1C2=CC=C(C=C2)Cl)C)C(=O)CN3CCCCC3 [IU1-47] + CC1(C)CCC(c2ccc(Cl)cc2)=C(CN2CCN(c3ccc(C(=O)NS(=O)(=O)c4ccc(N[C@H](CCN5CCOCC5)CSc5ccccc5)c(S(=O)(=O)C(F)(F)F)c4)cc3)CC2)C1 [Navitoclax] (partner 0.5 µM)
In short: (§1)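 Each reported value is a median over duplicate plates. It expresses relative viability: treated-well nuclei count divided by vehicle-well nuclei count. Lung cancer cell lines in 1536-well plates were dosed by pin tool a day after seeding, alone with one drug or with a fixed anchor-drug dose plus five library-drug doses (not always all listed) in √10 steps, and nuclei were counted after 5 days.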

IU1-47 + Foretinib = compound: CC1=CC(=C(N1C2=CC=C(C=C2)Cl)C)C(=O)CN3CCCCC3 [IU1-47] + COc1cc2c(Oc3ccc(NC(=O)C4(C(=O)Nc5ccc(F)cc5)CC4)cc3F)ccnc2cc1OCCCN1CCOCC1 [Foretinib] (partner 0.25 µM)
In short: as §1

FG-4592 = compound: Cc1nc(C(=O)NCC(=O)O)c(O)c2ccc(Oc3ccccc3)cc12 [FG-4592]
In short: (§2)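 After an overnight hold at 37 °C, lung cancer cell lines in 1536-well plates were pinned with five library-drug doses (not always all listed), each √10 from the next, on vehicle-anchored plates. The cells stayed 5 days without fresh medium, then a one-step fix, permeabilisation and Hoechst stain preceded 4× imaging and MetaXpress nuclear counts. A plate passed only with control CV under 25% and at least one doubling. Viability is the median, over plates, of treated-well nuclei relative to vehicle-well nuclei.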

IU1-47 = compound: CC1=CC(=C(N1C2=CC=C(C=C2)Cl)C)C(=O)CN3CCCCC3 [IU1-47]
In short: as §2

Cell Line	relative viability (IU1-47 + Navitoclax; first compound 0.08 µM)	relative viability (IU1-47 + Navitoclax; first compound 0.253 µM)	relative viability (IU1-47 + Navitoclax; first compound 0.8 µM)	relative viability (IU1-47 + Navitoclax; first compound 2.53 µM)	relative viability (IU1-47 + Navitoclax; first compound 8 µM)	relative viability (IU1-47 + Foretinib; first compound 0.08 µM)	relative viability (IU1-47 + Foretinib; first compound 0.253 µM)	relative viability (IU1-47 + Foretinib; first compound 0.8 µM)	relative viability (IU1-47 + Foretinib; first compound 2.53 µM)	relative viability (IU1-47 + Foretinib; first compound 8 µM)	relative viability (FG-4592; 0.08 µM)	relative viability (FG-4592; 0.253 µM)	relative viability (FG-4592; 0.8 µM)	relative viability (FG-4592; 2.53 µM)	relative viability (FG-4592; 8 µM)	relative viability (IU1-47; 0.08 µM)	relative viability (IU1-47; 0.253 µM)	relative viability (IU1-47; 0.8 µM)	relative viability (IU1-47; 2.53 µM)	relative viability (IU1-47; 8 µM)
LOU-NH91	0.772	0.687	0.638	0.609	0.652	0.988	1	0.903	0.891	0.966	0.942	0.869	0.905	0.92	0.96	1.09	1.04	0.964	1.04	0.952
NCI-H3122	1.02	0.966	1.02	1.01	1	–	0.94	1.02	1.07	0.976	1.03	0.957	1.06	1.07	1.03	1.07	1.07	1.01	1.04	0.974
NCI-H460	1.3	1.08	1.36	1.02	1.38	1.09	1.04	1.26	0.86	1.15	0.965	0.947	1.03	1	1.02	1.04	0.987	1.08	0.955	1.01
NCI-H1793	0.412	0.358	0.445	–	0.424	0.75	0.764	0.765	–	0.688	0.569	0.812	–	0.745	0.762	0.859	0.83	1.04	–	0.864
NCI-H1734	0.943	0.873	0.823	–	0.734	0.89	0.888	0.844	–	0.765	0.824	0.939	0.717	0.808	0.876	1.06	1.07	0.981	–	0.99
LXF-289	0.993	1	0.985	0.92	0.975	1.01	1.06	1.1	0.967	0.902	1.04	0.941	1.06	0.981	1.09	1.08	1.06	1.08	0.982	0.958
H3255	0.557	0.602	0.489	0.511	0.446	0.858	0.958	1.44	0.368	0.832	1.02	0.87	0.926	0.9	1.08	1.11	1.16	1.02	0.74	0.975
201T	1.23	1.2	1.21	–	1.22	1.31	1.22	1.26	1.05	1.09	0.941	0.955	0.974	1	0.982	0.961	0.99	1.07	0.53	0.941
NCI-H2126	0.987	0.823	0.897	0.545	0.809	1.28	1.17	1.22	0.723	1.03	0.969	0.906	0.82	0.846	0.901	1.09	1.02	1.1	0.698	0.957
HOP-62	1.05	0.962	1.12	0.897	1.21	1.17	1.12	1.04	1.11	1.13	0.997	0.957	0.943	0.96	1.01	1.09	1.05	1.09	0.779	1.09
CAL-12T	1.29	1.32	1.24	1.24	1.38	1.12	1.1	1.13	1.11	1.03	0.973	0.864	1.05	0.906	0.894	0.916	0.919	1.03	0.826	0.879
NCI-H520	1.22	1.12	1.26	1.02	0.981	0.785	0.866	0.698	1.15	0.651	0.873	0.897	0.827	0.943	0.761	0.989	0.973	0.981	0.879	0.849
NCI-H1755	1.15	1.05	1.06	1.07	1.01	0.932	0.926	0.961	0.973	0.934	0.958	0.941	0.916	1.02	1.03	1.11	1.11	1.09	1.04	0.958
NCI-H2023	1.02	0.934	1.05	1.02	1.1	0.75	0.722	1	–	0.719	0.919	0.866	0.857	0.922	0.88	0.951	0.949	1.06	0.851	1.27
NCI-H2009	1.23	1.2	1.16	1.14	1.18	1.24	1.25	1.18	1.22	1.23	1.03	0.958	1	0.902	0.953	1	1	1.02	0.842	1.04
